Measurements from PubChem BioAssay AID1963836 (Molecular Pharmacology Branch, DTP, NCI, 2024).
Where “and” joins values, the source holds several entries; their conditions need not be identical. Identical values can stand only once.

Test system: 857933-349-R-J2-PDC complex spheroid viability
Test: Anticancer human tumor 857933-349-R-J2-PDC patient-derived colon adenocarcinoma cell line growth inhibition [POLQ]
Details: for viability, T/C: stronger effect = lower value
Method: Multicellular complex tumor spheroid response to Polymerase (POL) inhibitors (novobiocin, ART-558, RP6685) in combination with a variety of drugs and investigational agents in selected tumor cell lines
The POL inhibitors (novobiocin, ART-558, and RP6685) were evaluated both individually and in combination with standard of care and investigational anticancer small molecules within a complex spheroid model of solid tumors. . Complex spheroids include a stromal component modeled by human endothelial cells (HUVEC) and fibroblasts modeled by human mesenchymal stem cells (MSCs). The concentration ranges selected for each drug and investigational agent were based upon clinically achievable concentrations if the clinical Cmax of the agent was known.
Compounds. The drugs and investigational agents: novobiocin (NSC847541), ART-558 (NSC835418), RP-6685 (NSC848927), peposertib (NSC802822), ceralasertib (NSC780249), elimusertib (NSC800525), camonsertib (NSC841442), AZD-1390 (NSC803789), olaparib (NSC753686), talazoparib (NSC767125), rucaparib (NSC756644), sotorasib (NSC818433), MRTX-1133 (NSC836407), SN-38 (NSC673596), topotecan (NSC609699), epotoside (NSC141540), doxorubicin (NSC123127), gemcitabine (NSC613327), 5-fluorouracil (NSC19893), paclitaxel (NSC125973), vemurafenib (NSC761431), MSA-2 (NSC828583), SN-011 (NSC837082), adavosertib (NSC754352), prexasertib (NSC758257), carboplatin (NSC241240) and oxaliplatin (NSC266046), were obtained from the National Cancer Institute (NCI) Developmental Therapeutics Program Chemical Repository (21). The FDA-approved anticancer drug set is available from the Developmental Therapeutics Program at https://dtp.cancer.gov/organization/dscb/obtaining/. […] The stock solutions were prepared in dimethyl sulfoxide (DMSO, Sigma-Aldrich, St. Louis, MO, cat. D2650), except for the platinum compounds which were prepared in saline (Quality Biological, Gaithersburg, MD, cat. 114-055-101), at 800-fold the tested concentration and stored at -70 degrees C prior to their use. All drugs and investigational agents were tested over a range starting from a high concentration at or near the clinical Cmax and decreasing in half-log increments. If the clinical Cmax for an agent had not been determined, the highest concentration tested was 10 microM, except for SN-38, which was tested at a high concentration of 1 microM.
Cell Culture. All cells were maintained in an incubator at 37 degrees C and 5% CO2 with 95% humidity. The PDC lines were cultured according to standard operating procedures established by the NCI PDMR (https://pdmr.cancer.gov). Table 3 of the manuscript, lists the cell lines along with the number of the three cell types plated to form the mct-spheroids and media for tumor cell growth. After thawing, all PDC lines, except 997537-175-T-J1-PDC and 415267-285-R-J2-PDC, were cultured in Matrigel-coated flasks prepared with a working solution of 1X Ham's F-12 nutrient mix, without supplementation (Thermo Fisher Scientific, cat. 11765054), 100 U/mL penicillin-streptomycin (Thermo Fisher Scientific, cat. 15140122), and 2.5% Matrigel (Corning Inc., Corning, NY, cat. 354248) for the first three passages. The two PDC lines 997537-175-T-J1-PDC and 415267-285-R-J2-PDC were cultured on uncoated flasks. The 857933-349-R-J2-PDC line was cultured in 6C/Colon 1B media containing advanced DMEM/F-12 (Thermo Fisher Scientific, cat. 12634028), 10 mM HEPES (Thermo Fisher Scientific, cat. 15630080), 1X GlutaMAX supplement (Thermo Fisher Scientific, cat. 35050061), 0.1 mg/mL primocin (InvivoGen, San Diego, CA, cat. ant-pm-2), 10% defined fetal bovine serum, heat inactivated (HyClone Laboratories Inc., Logan, UT, cat. SH30070.03HI), 50% L-WRN conditioned media (ATCC, cat. CRL-3276), 1.25 mM N-Acetyl-L-cysteine (Sigma-Aldrich, cat. A9165), 10 mM nicotinamide (Sigma-Aldrich, cat. N0636), 1X B-27 supplement (Thermo Fisher Scientific, cat. 17504044), 1X N-2 supplement (Thermo Fisher Scientific, cat. […]
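Note: spheroids exposed to compounds for seven days before readout.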

Molecule CCc1cc2c(N3CCc4c(cc(Cn5ccnc5)cc4-c4cn(C)nc4C(F)(F)F)C3=O)cc(C)nc2c(OC)n1 + Nc1ccc(C#CCN(C(=O)Cc2ncc(C(F)(F)F)cc2C(F)(F)F)c2ccc(F)cc2)nn1 has an IC50 (curve of first compound, second compound 0.0316 µM) of over 10 µM, an IC50 (curve of first compound, second compound 0.1 µM) of over 10 µM and an IC50 (curve of first compound, second compound 0.316 µM) of over 10 µM. For the same molecule, the IC50 (curve of first compound, second compound 1 µM) was over 10 µM, the IC50 (curve of first compound, second compound 3.16 µM) was over 10 µM and the IC50 (curve of first compound, second compound 10 µM) was over 10 µM. It also gave a viability, T/C (second compound 0.0316 µM, first compound 0.0316 µM) of 94.9%, a viability, T/C (second compound 0.0316 µM, first compound 0.1 µM) of 92.8% and a viability, T/C (second compound 0.0316 µM, first compound 0.316 µM) of 80.3%. For the same molecule, the viability, T/C (second compound 0.0316 µM, first compound 1 µM) was 79.8%, the viability, T/C (second compound 0.0316 µM, first compound 3.16 µM) was 67.4% and the viability, T/C (second compound 0.0316 µM, first compound 10 µM) was 62.8%. For the same molecule, the viability, T/C (second compound 0.1 µM, first compound 0.0316 µM) was 92%, the viability, T/C (second compound 0.1 µM, first compound 0.1 µM) was 101% and the viability, T/C (second compound 0.1 µM, first compound 0.316 µM) was 76.2%. The viability, T/C (second compound 0.1 µM, first compound 1 µM) was 73.5%, the viability, T/C (second compound 0.1 µM, first compound 3.16 µM) was 77.7% and the viability, T/C (second compound 0.1 µM, first compound 10 µM) was 55.1%. It also gave a viability, T/C (second compound 0.316 µM, first compound 0.0316 µM) of 89%, a viability, T/C (second compound 0.316 µM, first compound 0.1 µM) of 86.8% and a viability, T/C (second compound 0.316 µM, first compound 0.316 µM) of 86.5%. For the same molecule, the viability, T/C (second compound 0.316 µM, first compound 1 µM) was 81%, the viability, T/C (second compound 0.316 µM, first compound 3.16 µM) was 65.7% and the viability, T/C (second compound 0.316 µM, first compound 10 µM) was 57.1%. For the same molecule, the viability, T/C (second compound 1 µM, first compound 0.0316 µM) was 95.9%, the viability, T/C (second compound 1 µM, first compound 0.1 µM) was 96.9% and the viability, T/C (second compound 1 µM, first compound 0.316 µM) was 86.8%. The viability, T/C (second compound 1 µM, first compound 1 µM) was 78.8%, the viability, T/C (second compound 1 µM, first compound 3.16 µM) was 75.3% and the viability, T/C (second compound 1 µM, first compound 10 µM) was 51.4%. The viability, T/C (second compound 3.16 µM, first compound 0.0316 µM) was 87.8%, the viability, T/C (second compound 3.16 µM, first compound 0.1 µM) was 87% and the viability, T/C (second compound 3.16 µM, first compound 0.316 µM) was 97.7%. The viability, T/C (second compound 3.16 µM, first compound 1 µM) was 69.3%, the viability, T/C (second compound 3.16 µM, first compound 3.16 µM) was 64.3% and the viability, T/C (second compound 3.16 µM, first compound 10 µM) was 59.5%. It also gave a viability, T/C (second compound 10 µM, first compound 0.0316 µM) of 90.2%, a viability, T/C (second compound 10 µM, first compound 0.1 µM) of 78.5% and a viability, T/C (second compound 10 µM, first compound 0.316 µM) of 75%. For the same molecule, the viability, T/C (second compound 10 µM, first compound 1 µM) was 65.5%, the viability, T/C (second compound 10 µM, first compound 3.16 µM) was 53.5% and the viability, T/C (second compound 10 µM, first compound 10 µM) was 53.4%.

For CCCS(=O)(=O)Nc1ccc(F)c(C(=O)c2c[nH]c3ncc(-c4ccc(Cl)cc4)cc23)c1F, the viability, T/C (compound 0.0316 µM) was 87.2% and 97.5% and 76%, the viability, T/C (compound 0.1 µM) was 91% and 92.8% and 98.1% and the viability, T/C (compound 0.316 µM) was 80.8% and 102% and 99.7%. For the same molecule, the viability, T/C (compound 1 µM) was 82.6% and 101% and 102%, the viability, T/C (compound 3.16 µM) was 97.3% and 93.2% and 86% and the viability, T/C (compound 10 µM) was 32.9% and 13.3% and 13.9%. The IC50 (curve of compound) was 6.99 µM and 5.9 µM and 5.64 µM.

CCc1cc2c(N3CCc4c(cc(Cn5ccnc5)cc4-c4cn(C)nc4C(F)(F)F)C3=O)cc(C)nc2c(OC)n1 was tested, and the viability, T/C (compound 0.0316 µM) was 87% and 98.2% and 83.5%, the viability, T/C (compound 0.1 µM) was 84.3% and 88% and 82% and the viability, T/C (compound 0.316 µM) was 97.7% and 105% and 92.7%. For the same molecule, the viability, T/C (compound 1 µM) was 61.2% and 84.8% and 84%, the viability, T/C (compound 3.16 µM) was 65% and 78.1% and 61.3% and the viability, T/C (compound 10 µM) was 54.8% and 53.6% and 58.1%. For the same molecule, the IC50 (curve of compound) was over 10 µM.
